Measured values published in ChEMBL document CHEMBL1201862, “PubChem BioAssay data set” (2004).
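Dose response: 5 concentrations. Exposure: 48 h. Format: 96-well plates. Endpoint: linear interpolation; highest concentration if not reached. GI50 is the concentration that inhibits growth by half.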 The source made the active and inactive calls. No stated cut-off is given here; in the data, active = GI50 up to about 1.1 µM and inactive = higher.

Key:
Experiment in all cases: NCI-60 cell line screen, 48 h
K562 = test system: K562
SF-268 = test system: SF-268
A549 = test system: A549
HCC 2998 = test system: HCC 2998
NCI-H460 = test system: NCI-H460
MCF7 = test system: MCF7
NCI/ADR-RES = test system: NCI/ADR-RES
UACC-257 = test system: UACC-257
OVCAR-8 = test system: OVCAR-8
SK-OV-3 = test system: SK-OV-3
OVCAR-5 = test system: OVCAR-5
HCT-15 = test system: HCT-15
RPMI-8226 = test system: RPMI-8226
LOX IMVI = test system: LOX IMVI
HL-60 = test system: HL-60
NCI-H226 = test system: NCI-H226
SN12C = test system: SN12C
OVCAR-4 = test system: OVCAR-4
U-251 = test system: U-251
M14 = test system: M14

Measured: GI50

[N-]=[N+]=CC(=O)OCC(N)C(=O)O (configuration not stated)
0.297 µM: HCT-15
active: K562 0.286 µM | SF-268 0.685 µM | A549 0.557 µM | HCC 2998 0.362 µM | NCI-H460 0.411 µM | MCF7 0.217 µM | RPMI-8226 0.528 µM | LOX IMVI 0.205 µM | HL-60 0.448 µM | SN12C 0.421 µM | U-251 0.502 µM
inactive: NCI/ADR-RES 2.95 µM | UACC-257 95.9 µM | OVCAR-8 1.32 µM | SK-OV-3 2.42 µM | OVCAR-5 14.6 µM | NCI-H226 625 µM | OVCAR-4 14.1 µM

O=C(O)c1cc2c3c(c1)[C@H]1C=CC[C@H]1CN3CC1CC=CC21 (some centres not stated)
> 100 µM: HCT-15
inactive: K562 > 100 µM | SF-268 > 100 µM | A549 > 100 µM | HCC 2998 > 100 µM | NCI-H460 > 100 µM | UACC-257 > 100 µM | OVCAR-8 > 100 µM | SK-OV-3 > 100 µM | M14 > 100 µM | OVCAR-5 > 100 µM | RPMI-8226 > 100 µM | LOX IMVI > 100 µM | HL-60 > 100 µM | NCI-H226 > 100 µM | SN12C > 100 µM | OVCAR-4 > 100 µM | U-251 > 100 µM

CCOC(=O)/C(=N/Nc1ccc(Cl)cc1)N1C(=S)N(C)N=C(C)C=C1S
> 100 µM: HCT-15
inactive: K562 > 100 µM | SF-268 29.9 µM | A549 61.8 µM | HCC 2998 > 100 µM | NCI-H460 26.7 µM | MCF7 > 100 µM | NCI/ADR-RES 42.9 µM | UACC-257 > 100 µM | OVCAR-8 23.7 µM | SK-OV-3 40.3 µM | M14 > 100 µM | OVCAR-5 > 100 µM | RPMI-8226 > 100 µM | HL-60 > 100 µM | SN12C 29.6 µM | OVCAR-4 > 100 µM | U-251 15.9 µM

Cc1sc(N)c(S(=O)(=O)c2ccccc2)c1C
> 100 µM: HCT-15
inactive: K562 > 100 µM | SF-268 > 100 µM | A549 > 100 µM | HCC 2998 > 100 µM | NCI-H460 > 100 µM | MCF7 > 100 µM | NCI/ADR-RES > 100 µM | UACC-257 > 100 µM | OVCAR-8 > 100 µM | SK-OV-3 > 100 µM | M14 > 100 µM | OVCAR-5 > 100 µM | RPMI-8226 > 100 µM | HL-60 > 100 µM | NCI-H226 > 100 µM | SN12C > 100 µM | OVCAR-4 > 100 µM | U-251 > 100 µM

CN(C)CCCCN1CCc2c(n(C)c3ccccc23)C1=O
27.9 µM: HCT-15
inactive: K562 26.2 µM | SF-268 31.3 µM | A549 50.6 µM | MCF7 36.6 µM | NCI/ADR-RES > 67.8 µM | UACC-257 16.5 µM | OVCAR-8 > 80.4 µM | SK-OV-3 > 63.7 µM | M14 18.4 µM | LOX IMVI 19.4 µM | HL-60 51.4 µM | NCI-H226 > 59.7 µM | SN12C 42 µM

CCCCCCCCCCC(C)CCCCCCC(=O)O (configuration not stated)
> 100 µM: HCT-15
inactive: K562 > 100 µM | SF-268 > 100 µM | A549 > 100 µM | HCC 2998 > 100 µM | NCI-H460 > 100 µM | UACC-257 > 100 µM | OVCAR-8 > 100 µM | SK-OV-3 > 100 µM | M14 > 100 µM | OVCAR-5 > 100 µM | RPMI-8226 > 100 µM | LOX IMVI > 100 µM | HL-60 > 100 µM | NCI-H226 > 100 µM | SN12C > 100 µM | OVCAR-4 > 100 µM | U-251 > 100 µM

COc1ccc2c(c1)/C(=C/CCN(C)C)c1ccccc1S2
inactive: K562 46.1 µM | SF-268 92.9 µM | A549 > 100 µM | HCC 2998 44.3 µM | NCI-H460 > 100 µM | MCF7 > 10 µM | NCI/ADR-RES > 100 µM | UACC-257 > 100 µM | OVCAR-8 > 100 µM | SK-OV-3 > 100 µM | M14 73.8 µM | LOX IMVI 95.5 µM | HL-60 48.5 µM | NCI-H226 > 100 µM | SN12C > 100 µM | U-251 > 100 µM
> 100 µM: HCT-15

COc1ccc(C23C(=O)c4ccccc4N2O[C@H]2C(=O)N(c4ccccc4)C(=O)[C@H]23)cc1 (some centres not stated)
> 100 µM: HCT-15
inactive: K562 > 100 µM | SF-268 > 100 µM | A549 > 100 µM | HCC 2998 > 100 µM | NCI-H460 > 100 µM | UACC-257 > 100 µM | OVCAR-8 > 100 µM | SK-OV-3 > 100 µM | M14 > 100 µM | OVCAR-5 > 100 µM | RPMI-8226 > 100 µM | LOX IMVI > 100 µM | HL-60 > 100 µM | NCI-H226 > 100 µM | SN12C > 100 µM | OVCAR-4 > 100 µM | U-251 > 100 µM

Cc1ccc(S(=O)(=O)N/N=C/c2c(O)ccc3ccccc23)cc1
24.5 µM: HCT-15
inactive: K562 18.3 µM | SF-268 31.8 µM | A549 34 µM | HCC 2998 21.4 µM | NCI-H460 26.3 µM | MCF7 25.5 µM | NCI/ADR-RES 27.7 µM | UACC-257 37.3 µM | OVCAR-8 30.4 µM | SK-OV-3 7.87 µM | M14 22.1 µM | OVCAR-5 29.6 µM | RPMI-8226 26.7 µM | LOX IMVI 32.1 µM | HL-60 43.4 µM | SN12C 31.1 µM | OVCAR-4 28.8 µM | U-251 27.6 µM

Cc1ccc(-c2c(C#N)c(-c3ccc([N+](=O)[O-])cc3)c(C#N)c(=O)n2NS(=O)(=O)c2ccccc2)cc1
36 µM: HCT-15
inactive: K562 39.3 µM | SF-268 49 µM | A549 36.6 µM | HCC 2998 25.5 µM | NCI-H460 32.3 µM | MCF7 19.2 µM | NCI/ADR-RES 26.1 µM | UACC-257 88.3 µM | OVCAR-8 31.6 µM | SK-OV-3 22.4 µM | M14 32.5 µM | OVCAR-5 64.4 µM | LOX IMVI 25.9 µM | NCI-H226 70.3 µM | SN12C 96.2 µM | OVCAR-4 28.1 µM | U-251 40.3 µM

Cc1ccc2c3c4c(ccc13)C(C)(C)OC4=C(C(C)C)C2=O
inactive: K562 59.3 µM | SF-268 34.7 µM | A549 55.5 µM | HCC 2998 39.8 µM | NCI-H460 31.8 µM | MCF7 44.7 µM | NCI/ADR-RES 19.5 µM | UACC-257 30.5 µM | OVCAR-8 44.7 µM | SK-OV-3 > 100 µM | M14 45.1 µM | OVCAR-5 > 100 µM | RPMI-8226 43.7 µM | HL-60 16.6 µM | NCI-H226 5.4 µM | SN12C > 100 µM | OVCAR-4 65.5 µM | U-251 79.8 µM
32.5 µM: HCT-15

O=C(CCC(=O)Nc1ccccc1C(F)(F)F)N/N=C1\C(=N\NC(=O)CCC(=O)Nc2ccccc2C(F)(F)F)C(c2ccc3c(c2)OCO3)Oc2ccccc21 (configuration not stated)
5.33 µM: HCT-15
inactive: K562 3.54 µM | SF-268 3.01 µM | A549 7.16 µM | HCC 2998 > 100 µM | NCI-H460 4.02 µM | UACC-257 > 100 µM | OVCAR-8 7.87 µM | SK-OV-3 20.7 µM | M14 > 100 µM | OVCAR-5 > 100 µM | RPMI-8226 4.44 µM | LOX IMVI 6.28 µM | HL-60 3.4 µM | NCI-H226 10.6 µM | SN12C 6.46 µM | OVCAR-4 9.95 µM | U-251 4.97 µM

[N-]=[N+]=CC(=O)c1ccccc1C#CCCc1ccccc1
inactive: K562 27.5 µM | A549 27.2 µM | HCC 2998 31.8 µM | NCI-H460 23.2 µM | UACC-257 23.9 µM | OVCAR-8 27.8 µM | SK-OV-3 15.1 µM | M14 38.8 µM | OVCAR-5 50.5 µM | RPMI-8226 14 µM | LOX IMVI 30.1 µM | HL-60 8.05 µM | NCI-H226 29.4 µM | SN12C 35.5 µM | OVCAR-4 44.2 µM | U-251 10.2 µM
26.1 µM: HCT-15

C#Cc1c(C)c(/C=C/C(C)=C\C(=O)OC)n(C)c1C
inactive: K562 8.97 µM | SF-268 68.5 µM | A549 > 100 µM | HCC 2998 > 100 µM | NCI-H460 63.7 µM | UACC-257 > 100 µM | OVCAR-8 70.1 µM | SK-OV-3 > 100 µM | M14 > 100 µM | OVCAR-5 > 100 µM | RPMI-8226 18.8 µM | LOX IMVI > 100 µM | HL-60 6.65 µM | NCI-H226 > 100 µM | SN12C > 100 µM | OVCAR-4 75.9 µM | U-251 > 100 µM
92.9 µM: HCT-15

O=C(Nc1cccc(C(F)(F)F)c1)C(=O)C(C(=O)c1ccc(Cl)c(Cl)c1)C1OC(=O)c2ccccc21 (configuration not stated)
35 µM: HCT-15
inactive: K562 44 µM | SF-268 37.9 µM | A549 44.2 µM | HCC 2998 28.5 µM | NCI-H460 31.8 µM | UACC-257 51.8 µM | OVCAR-8 26.5 µM | SK-OV-3 > 100 µM | M14 81.1 µM | OVCAR-5 62.4 µM | RPMI-8226 56 µM | LOX IMVI 27.3 µM | HL-60 29.4 µM | NCI-H226 19.9 µM | SN12C 36.6 µM | OVCAR-4 40 µM | U-251 23.1 µM

COC(=O)c1c(-c2ccccc2)c2sc3ccccc3n2c1N
85.7 µM: HCT-15
inactive: K562 > 100 µM | SF-268 44 µM | A549 29.6 µM | HCC 2998 31.5 µM | NCI-H460 40.2 µM | MCF7 34.8 µM | NCI/ADR-RES > 100 µM | UACC-257 > 100 µM | OVCAR-8 58.3 µM | SK-OV-3 > 100 µM | M14 76.6 µM | OVCAR-5 > 100 µM | RPMI-8226 > 100 µM | LOX IMVI 17.3 µM | NCI-H226 > 100 µM | SN12C 33 µM | OVCAR-4 56.5 µM | U-251 59.4 µM
